From ChEMBL document CHEMBL1909046, “DrugMatrix in vitro pharmacology data”

Key:
[1] = target: 5-hydroxytryptamine receptor 4 (Cavia porcellus, UniProt O70528); format: cell membranes, Dunkin-Hartley, Striatum, Membrane; also: in other assays of this panel Not Active means under 50% inhibition at 10 µM
[2] = target: D(3) dopamine receptor (Homo sapiens, UniProt P35462); assay: DRUGMATRIX: Dopamine D3 radioligand binding (ligand: [3H] Spiperone); format: cell membranes, CHO, Membrane
[3] = target: Melanocortin receptor 3 (Homo sapiens, UniProt P41968); format: cell membranes, HEK293, Membrane; conditions: hek293; also: in other assays of this panel Not Active means under 50% inhibition at 10 µM
[4] = DRUGMATRIX: Potassium Channel [KATP] radioligand binding (ligand: [3H] Glyburide); format: cell membranes, Membrane; conditions: hit-t15; Not Active = under 50% inhibition at 10 µM
[5] = DRUGMATRIX: Purinergic P2X radioligand binding (ligand: [3H] alpha, beta-Methylene-ATP); format: cell membranes, Oryctolagus cuniculus, New Zealand albino, Urinary bladder, Membrane; conditions: Not Active = under 50% inhibition at 10 µM
[6] = target: Cytochrome P450 2C19 (Homo sapiens, UniProt P33261); conditions: bti-tn-5b1-4; also: in other assays of this panel Not Active means under 50% inhibition at 10 µM
[7] = target: Cytochrome P450 2E1 (Homo sapiens, UniProt P05181); conditions: bti-tn-5b1-4; also: in other assays of this panel Not Active means under 50% inhibition at 10 µM
Cytochrome P450 2E1, sequence (P05181 whole entry): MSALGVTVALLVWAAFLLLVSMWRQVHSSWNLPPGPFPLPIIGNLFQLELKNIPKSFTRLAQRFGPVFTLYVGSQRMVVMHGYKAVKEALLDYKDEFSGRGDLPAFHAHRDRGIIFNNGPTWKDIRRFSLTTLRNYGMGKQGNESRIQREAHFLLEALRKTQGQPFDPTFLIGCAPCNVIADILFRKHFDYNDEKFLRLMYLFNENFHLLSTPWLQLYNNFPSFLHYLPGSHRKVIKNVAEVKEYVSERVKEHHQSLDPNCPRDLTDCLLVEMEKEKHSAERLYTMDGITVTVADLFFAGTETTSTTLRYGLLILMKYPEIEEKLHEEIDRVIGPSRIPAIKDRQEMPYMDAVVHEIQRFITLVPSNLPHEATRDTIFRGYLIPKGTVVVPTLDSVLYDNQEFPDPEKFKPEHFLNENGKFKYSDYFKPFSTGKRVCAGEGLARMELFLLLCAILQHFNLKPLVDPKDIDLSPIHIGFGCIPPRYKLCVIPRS

Melanocortin receptor 3, sequence (P41968 whole entry): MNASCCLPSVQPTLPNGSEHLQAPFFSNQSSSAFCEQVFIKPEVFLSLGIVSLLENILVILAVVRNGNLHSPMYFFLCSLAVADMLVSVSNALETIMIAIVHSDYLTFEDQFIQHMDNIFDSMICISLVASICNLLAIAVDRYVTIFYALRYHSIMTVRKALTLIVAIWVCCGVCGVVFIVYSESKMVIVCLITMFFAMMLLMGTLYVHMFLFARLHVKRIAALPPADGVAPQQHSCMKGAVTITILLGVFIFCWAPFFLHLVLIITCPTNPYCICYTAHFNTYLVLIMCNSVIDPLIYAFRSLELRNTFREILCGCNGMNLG
Cytochrome P450 2C19, sequence (P33261 whole entry): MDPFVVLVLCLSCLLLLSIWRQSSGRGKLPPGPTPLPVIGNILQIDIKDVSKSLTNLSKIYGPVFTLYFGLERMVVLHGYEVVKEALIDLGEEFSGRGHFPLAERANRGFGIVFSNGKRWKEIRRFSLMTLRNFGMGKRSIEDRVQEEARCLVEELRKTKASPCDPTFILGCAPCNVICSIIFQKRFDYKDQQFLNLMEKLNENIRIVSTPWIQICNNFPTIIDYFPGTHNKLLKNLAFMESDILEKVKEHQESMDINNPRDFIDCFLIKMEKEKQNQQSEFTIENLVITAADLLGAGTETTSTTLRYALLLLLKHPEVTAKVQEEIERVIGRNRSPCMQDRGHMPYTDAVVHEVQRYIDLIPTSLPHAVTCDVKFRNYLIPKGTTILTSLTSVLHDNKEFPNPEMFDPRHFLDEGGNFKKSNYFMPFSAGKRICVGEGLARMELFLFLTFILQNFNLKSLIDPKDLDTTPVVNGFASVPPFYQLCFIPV
D(3) dopamine receptor, sequence (P35462 whole entry): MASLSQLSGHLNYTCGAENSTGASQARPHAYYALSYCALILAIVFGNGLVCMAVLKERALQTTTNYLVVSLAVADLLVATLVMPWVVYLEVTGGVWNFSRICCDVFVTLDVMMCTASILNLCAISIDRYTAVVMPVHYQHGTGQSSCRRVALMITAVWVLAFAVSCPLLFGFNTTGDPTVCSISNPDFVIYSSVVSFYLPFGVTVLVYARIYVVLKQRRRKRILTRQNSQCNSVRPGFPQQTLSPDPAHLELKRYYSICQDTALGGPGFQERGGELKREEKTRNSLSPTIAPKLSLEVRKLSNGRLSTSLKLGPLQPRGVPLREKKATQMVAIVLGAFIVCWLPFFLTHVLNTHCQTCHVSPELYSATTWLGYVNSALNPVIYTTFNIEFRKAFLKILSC
5-hydroxytryptamine receptor 4, sequence (O70528 whole entry): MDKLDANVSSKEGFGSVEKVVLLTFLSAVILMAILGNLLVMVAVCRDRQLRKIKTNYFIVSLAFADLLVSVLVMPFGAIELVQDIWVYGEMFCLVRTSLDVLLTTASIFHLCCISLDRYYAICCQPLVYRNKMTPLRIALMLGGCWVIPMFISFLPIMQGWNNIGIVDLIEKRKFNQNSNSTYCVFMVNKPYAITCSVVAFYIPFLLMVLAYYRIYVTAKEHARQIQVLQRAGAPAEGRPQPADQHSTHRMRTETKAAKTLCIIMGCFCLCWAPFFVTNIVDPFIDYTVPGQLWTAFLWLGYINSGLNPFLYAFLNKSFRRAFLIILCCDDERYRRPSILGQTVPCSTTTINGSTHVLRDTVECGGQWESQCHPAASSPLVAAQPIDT

Compound | IC50 [1] | IC50 ([2]; cho) | IC50 [3] | IC50 [4] | Ki [4] | IC50 [5] | Ki [5] | IC50 [6] | Ki [6] | IC50 [7] | Ki [7] | Ki [1] | Ki ([2]; cho) | Ki [3] | IC50 ([2]; read-out: IC50) [nM] | Ki ([2]; read-out: Ki) [nM]
c1ccc2c(c1)Nc1ccccc1S2 [PHENOTHIAZINE] | Not Active | Not Active | Not Active | Not Active | Not Active | Not Active | Not Active | Not Active | Not Active | Not Active | Not Active |  |  |  |  | 
CHROMIC CHLORIDE | Not Active | Not Active | Not Active | Not Active | Not Active | Not Active | Not Active | Not Active | Not Active | Not Active | Not Active | Not Active | Not Active | Not Active |  | 
Cl.NC[C@H]1CC[C@H](C(=O)Oc2ccc(CCC(=O)O)cc2)CC1 [CETRAXATE HYDROCHLORIDE] | Not Active | Not Active | Not Active | Not Active | Not Active | Not Active | Not Active | Not Active | Not Active | Not Active | Not Active |  |  |  |  | 
O=c1[nH]c2ccccc2c2ccccc12 | Not Active | Not Active | Not Active | Not Active | Not Active | Not Active | Not Active | Not Active | Not Active | Not Active | Not Active |  |  |  |  | 
C[C@H](C(=O)O)c1ccc2oc(-c3ccc(F)cc3)nc2c1 [FLUNOXAPROFEN] | Not Active | Not Active | Not Active | Not Active | Not Active | Not Active | Not Active | Not Active | Not Active | Not Active | Not Active |  |  |  |  | 
C[N+](C)(C)CCOC(N)=O.[Cl-] [CARBACHOL] | Not Active | Not Active | Not Active | Not Active | Not Active | Not Active | Not Active | Not Active | Not Active | Not Active | Not Active |  |  |  |  | 
O=C(O)CCc1nc(-c2ccccc2)c(-c2ccccc2)o1 [OXAPROZIN] | Not Active | Not Active | Not Active | Not Active | Not Active | Not Active | Not Active | Not Active | Not Active | Not Active | Not Active |  |  |  |  | 
CC(=O)[C@]1(O)Cc2c(O)c3c(c(O)c2[C@@H](O[C@H]2C[C@H](N)[C@H](O)[C@H](C)O2)C1)C(=O)c1ccccc1C3=O [IDARUBICIN] | Not Active | Not Active | Not Active | Not Active | Not Active | Not Active | Not Active | Not Active | Not Active | Not Active | Not Active |  |  |  |  | 
O=C1CN(/N=C/c2ccc([N+](=O)[O-])o2)C(=O)N1 [NITROFURANTOIN] | Not Active | Not Active | Not Active | Not Active | Not Active | Not Active | Not Active | Not Active | Not Active | Not Active | Not Active |  |  |  |  | 
CARBOXYMETHYLCELLULOSE | Not Active | Not Active | Not Active | Not Active | Not Active | Not Active | Not Active | Not Active | Not Active | Not Active | Not Active | Not Active | Not Active | Not Active |  | 
c1ccc2sc(SSc3nc4ccccc4s3)nc2c1 [BENZOTHIAZYL DISULFIDE] | Not Active |  | Not Active | Not Active | Not Active | Not Active | Not Active | Not Active | Not Active | Not Active | Not Active |  |  |  | 851 | 289
